Columns and labels:
[1] = test system: neonatal rat cardiomyocytes; assay: Cardiomyocyte viability (live/dead assay); assay type: cell-based; conditions: 120 h, after 5 days in vitro culture, drugs in medium (20 µM), control cells 25 %
Protocol: (§1) Cell isolation: Primary neonatal rat cardiomyocytes and fibroblasts were isolated from the hearts of 1-2 day old Sprague-Dawley rat pups as described previously with minor modifications. Briefly, the cardiac tissue was minced and digested with 80 units/mL collagenase II (Worthington) and 0.8 mg/mL pancreatin (Sigma) at 37° C. in a water bath. Neonatal calf serum (NCS) was applied to inactivate enzymatic activity in the digested cell mixture. The cell solution was filtered through 100 µm mesh and centrifuged at 2200 rpm for 3 minutes. The cell pellets were suspended in 1 mL NCS and further separated by Percoll density gradient centrifugation. […]
Cell culture and evaluation of drug effects in vitro: The drug effects on cardiomyocyte viability and proliferation were evaluated. Isolated cardiomyocytes were calculated and seeded on 0.1% gelatin-coated twenty-four well tissue culture plate with a density of 20, 000 cells/cm^2, and cultured at 37° C. in a humidified, 5% CO2 incubator overnight in DMEM/Medium 199 (4/1) containing 10% FBS, 1% NEAAs and 1% P/S. The next day, the culture medium was replaced by fresh medium containing 20 µM F, R or their combination. […] A live/dead kit (Invitrogen) was for cell viability assay, and images were taken using inverted microscope fluorescence microscopy (Zeiss Axio Observer Z1) to determine the cell numbers and the percentage of dead cells. […]

[2] = test system: Human umbilical vein endothelial cells (HUVECs); assay: Endothelial cell proliferation (MTS assay); assay type: cell-based
Protocol: The drug effects on EC proliferation and network formation were evaluated. Human umbilical vein endothelial cells (HUVECs) were seeded on 0.1% gelatin-coated 24-well plates with a density of 5, 000 cells/cm^2 and cultured overnight in DMEM containing 10% FBS and 1% P/S. On the next day, the culture medium was replaced by the fresh medium containing F and R at the determined concentrations and combinations, and the medium was changed every other day. MTS cell proliferation assay was performed on day 1, 3 and 5. In addition, the ECs network formation was examined on growth factor reduced Matrigel according to the manufacturer's instructions (cat# CB-40230C, Thermo Fisher Scientific). Briefly, 24-well plates were coated with Matrigel. ECs were digested and plated onto a layer of Matrigel at a density of 3×10^5 cells/well in M199 medium containing 1% FBS and […], with the addition of F and R. Vascular endothelial growth factor (VEGF, 20 ng/mL) was used as a positive control. After 16 hours of culture, cells were stained with calcein acetoxymethyl ester (calcein-AM) and observed with an inverted fluorescent microscope. The number of tubular structures, junctions and meshes were analyzed by Image J with the Angiogenesis Analyzer plugin (n = 4-6 per group).

[3] = test system: neonatal cardiac fibroblasts; assay: Cardiac fibroblast myo-differentiation (α-SMA / F-actin staining); assay type: cell-based, rat; conditions: drugs in medium, day 5
Protocol: as §1, with “centrifugation. A two-layer density gradient was formed consisting of 40.5% Percoll (GE17-0891-01, Sigma) solution in the top layer and 58.5% Percoll solution in the bottom layer.” for “centrifugation.”
The drug effects on cardiac fibroblast proliferation and myo-differentiation were evaluated. Fibroblasts were seeded on twenty-four well tissue culture plate with a density of 5000 cells/cm^2 and cultured overnight in DMEM containing 10% FBS and 1% P/S. On the next day, the culture medium was replaced by the fresh medium containing F and R at the determined concentrations and combinations, and the medium was changed every other day. […]
(§2) The effects of drugs released from FR/NPs and FR/NPs-µGel particles 12 were evaluated using the methods mentioned above. […]

cardiac fibroblasts = assay: Cardiac fibroblast proliferation (MTS assay); assay type: cell-based, rat; conditions: drugs in medium
Protocol: Cell isolation: Primary neonatal rat cardiomyocytes and fibroblasts were isolated from the hearts of 1-2 day old Sprague-Dawley rat pups as described previously with minor modifications. Briefly, the cardiac tissue was minced and digested with 80 units/mL collagenase II (Worthington) and 0.8 mg/mL pancreatin (Sigma) at 37° C. in a water bath. Neonatal calf serum (NCS) was applied to inactivate enzymatic activity in the digested cell mixture. The cell solution was filtered through 100 µm mesh and centrifuged at 2200 rpm for 3 minutes. The cell pellets were suspended in 1 mL NCS and further separated by Percoll density gradient centrifugation. A two-layer density gradient was formed consisting of 40.5% Percoll (GE17-0891-01, Sigma) solution in the top layer and 58.5% Percoll solution in the bottom layer. The cell suspension was layered on top of the gradient and centrifuged at 3000 rpm at room temperature for 30 minutes. […] The drug effects on cardiac fibroblast proliferation and myo-differentiation were evaluated. Fibroblasts were seeded on twenty-four well tissue culture plate with a density of 5000 cells/cm^2 and cultured overnight in DMEM containing 10% FBS and 1% P/S. On the next day, the culture medium was replaced by the fresh medium containing F and R at the determined concentrations and combinations, and the medium was changed every other day. […]

neonatal cardiomyocytes = assay: Cardiomyocyte proliferation (EdU assay); assay type: cell-based, rat; conditions: drugs in medium
Protocol: Cell isolation: Primary neonatal rat cardiomyocytes and fibroblasts were isolated from the hearts of 1-2 day old Sprague-Dawley rat pups as described previously with minor modifications. Briefly, the cardiac tissue was minced and digested with 80 units/mL collagenase II (Worthington) and 0.8 mg/mL pancreatin (Sigma) at 37° C. in a water bath. Neonatal calf serum (NCS) was applied to inactivate enzymatic activity in the digested cell mixture. The cell solution was filtered through 100 µm mesh and centrifuged at 2200 rpm for 3 minutes. The cell pellets were suspended in 1 mL NCS and further separated by Percoll density gradient centrifugation. […] Cell culture and evaluation of drug effects in vitro: The drug effects on cardiomyocyte viability and proliferation were evaluated. Isolated cardiomyocytes were calculated and seeded on 0.1% gelatin-coated twenty-four well tissue culture plate with a density of 20, 000 cells/cm^2, and cultured at 37° C. in a humidified, 5% CO2 incubator overnight in DMEM/Medium 199 (4/1) containing 10% FBS, 1% NEAAs and 1% P/S. […] A live/dead kit (Invitrogen) was for cell viability assay, and images were taken using inverted microscope fluorescence microscopy (Zeiss Axio Observer Z1) to determine the cell numbers and the percentage of dead cells. […]

[4] = test system: Human umbilical vein endothelial cells (HUVECs); assay: Endothelial cell tubule network formation on Matrigel; assay type: cell-based; conditions: drugs in medium, 16 hours
Protocol: The drug effects on EC proliferation and network formation were evaluated. Human umbilical vein endothelial cells (HUVECs) were seeded on 0.1% gelatin-coated 24-well plates with a density of 5, 000 cells/cm^2 and cultured overnight in DMEM containing 10% FBS and 1% P/S. On the next day, the culture medium was replaced by the fresh medium containing F and R at the determined concentrations and combinations, and the medium was changed every other day. MTS cell proliferation assay was performed on day 1, 3 and 5. In addition, the ECs network formation was examined on growth factor reduced Matrigel according to the manufacturer’s instructions (cat# CB-40230C, Thermo Fisher Scientific). Briefly, 24-well plates were coated with Matrigel. ECs were digested and plated onto a layer of Matrigel at a density of 3×10^5 cells/well in M199 medium containing 1% FBS and 1% P/S, with the addition of F and R. Vascular endothelial growth factor (VEGF, 20 ng/mL) was used as a positive control. After 16 hours of culture, cells were stained with calcein acetoxymethyl ester (calcein-AM) and observed with an inverted fluorescent microscope. The number of tubular structures, junctions and meshes were analyzed by Image J with the Angiogenesis Analyzer plugin (n = 4-6 per group).
as §2

Row | Structure (SMILES) | viability at 20 µM [1] | optimal concentration to enhance EC proliferation [2] | myo-differentiation of cardiac fibroblasts [3] | fibroblast proliferation (cardiac fibroblasts) | EC proliferation ([2]; drugs in medium) | proliferation of neonatal cardiomyocytes, times as many cells as the control (neonatal cardiomyocytes) | EC network formation [4]
1 | C=C[C@@]1(C)CC(=O)[C@]2(O)[C@@]3(C)[C@@H](O)CCC(C)(C)[C@@H]3[C@H](O)[C@H](OC(C)=O)[C@@]2(C)O1 [F, Forskolin] | 80% | 20 µM |  |  |  |  | 
2 | Cc1cccc(-c2n[nH]cc2-c2ccc3ncccc3n2)n1 [R, 2-(3-(6-Methylpyridine-2-yl)-1H-pyrazol-4-yl)-1,5-naphthyridine] | 80% | 20 µM | could prevent myo-differentiation of cardiac fibroblasts | opposite inhibitory effects | dose-dependent effects to enhance EC proliferation | six | not with R alone

Source: patent US20230293438A1, “INJECTABLE DRUG-RELEASING MICROPOROUS ANNEALED PARTICLE SCAFFOLDS FOR TREATING MYOCARDIAL INFARCTION” (THE REGENTS OF THE UNIVERSITY OF CALIFORNIA, priority 2020, published 2023)
